Results: patent US20080161248A1, “Methods and Compositions for Therapeutic Treatment” (priority 2006, published 2008)
Like-named read-outs stand apart in the source and are kept apart here.

What was measured:
[1] = test system: LEW responder splenocytes with irradiated BN stimulators (lymphocyte proliferation); test: Mixed lymphocyte reaction (MLR) with spleen cells of treated Lewis rats; format: cell-based, rat; settings: Lewis rats 1 mg/kg i.v.; spleens 4 hr after dosing; R:S ratios 0.5:1, 1:1, 5:1
Protocol: Animals: 8-9 weeks-old Lewis and Brown Norway male rats were obtained from Charles River Laboratories. […] Treatment: Lewis rats were treated with different single doses of LNS 0694i.p. 30 minutes prior to single i.v. injections of tacrolimus at a concentration of 1 mg/kg as described in the table below. Spleens were collected at 4 hr after administration of FK506 for use in the in vitro mixed lymphocyte reaction (MLR) and Con A assays. […] Mixed lymphocyte reactions: A single cell suspension of the spleen of each rat on test (LEW, responder) was prepared with a Dounce homogenizer and wash-medium. The cell suspension was depleted of red blood cells (treatment with NH4CL/Tris buffer) and washed twice with wash medium before resuspending in complete medium (CM; […] A single cell suspension of splenocytes from five Brown Norway rats (BN, stimulators) was prepared with the same method. The BN splenocytes were pooled and irradiated with 1,500-2,000 rad (cesium source) before use. Varying numbers of responder cells were mixed with a constant number of stimulators (105) in 96-well, U-bottom cell culture plates to give a final responder:stimulator (R:S) ratio of 10:1,5: 1, 1:1 and 0.5:1 in 200 μl CM. […] The results of the MLR assays [thymidine incorporation as counts per minute (CPM)] are expressed as mean ±SD.

[2] = cited from earlier work
[3] = kidney transplant patients, cited from earlier work
[4] = cited from earlier work; remark: listed apart in the source
[5] = cited from earlier work; remark: listed apart in the source
[6] = liver transplantation, U.S. study, 12-month post-transplant; cited from earlier work
murine or human T cells = settings: cited from earlier work
[7] = test system: mouse spleen cells, response to LPS; test: In vitro LPS assay on spleen cells; format: cell-based; settings: high ([…]10^6 cells/well) and low (8×10^5 cells/well) cell concentration
From the text: Animals: 8-9 weeks-old Lewis and Brown Norway male rats were obtained from Charles River Laboratories. General procedures for animal care and housing was in accordance with the National Research Council (NRC) Guide for the Care and Use of Laboratory Animals (1996) and the Animal Welfare Standards incorporated in 9 CFR Part 3, 1991.
Spleens were collected for use in in vitro Con A and LPS assays.
FIGS. 10 and 11 show the effect of quercetin and tacrolimus on response of mouse spleen cells to LPS at a high (1.6×10^6 cells/well) and low (8×10^5 cells/well) cell concentration, respectively.

[8] = US heart transplantation study; cited from earlier work
[9] = body surface area corrections, cited from earlier work

In the case of `C=CC[C@@H]1/C=C(\C)C[C@H](C)C[C@H](OC)C2O[C@@](O)(C(=O)C(=O)N3CCCC[C@H]3C(=O)O[C@H](/C(C)=C/[C@@H]3CC[C@@H](O)[C@H](OC)C3)[C@H](C)[C@@H](O)CC1=O)[C@H](C)C[C@@H]2OC` (relative stereo) [Prograf, [3S-[3R[E(1S*,3S*,4S*)], 4S*,5R*,8S*,9E,12R*,14R*,15S*,16R*,18S*,19S*,26aR*]]-,6,8,11,12,13,14,15,16,17,18,19,24,25,26,26a-hexadecahydro-5,19-dihydroxy-3-[2-(4-hydroxy-3-methoxycyclohexyl)-1-methylethenyl]-14,16-dimethoxy-4,10,12,18-tetramethyl-8-(2-propenyl)-15,19-epoxy-3H-pyrido[2,1-c][1,4]oxaazacyclotricosine-1,7,20,21 (4H,23H)-tetrone, monohydrate], the “effect on MLR (lymphocyte proliferation, thymidine incorporation)” value [1] is listed as “inhibited MLR”, the “patients with trough concentrations within the pre-defined target range” value ([2]; European heart study, target range 5-15 ng/mL) is listed as 74-86% and the “Adverse event: Tremor” value ([2]; heart transplant patients, European trial) is listed as 15%. For the same compound, the “Adverse event: Abdominal Pain” value [3] was 33%, the “Adverse event: Anemia” value [3] was 30% and the “Adverse event: Arthralgia” value [3] was 25%. For the same compound, the “Adverse event: Asthenia” value [3] was 34%, the “Adverse event: Back Pain” value [3] was 24% and the “Adverse event: Chest pain” value [3] was 19%. For the same compound, the “Adverse event: Constipation” value [3] was 35%, the “Adverse event: Cough Increased” value [3] was 18% and the “Adverse event: Creatinine Increased” value [3] was 45%. For the same compound, the “Adverse event: Diabetes Mellitus” value [3] was 24%, the “Adverse event: Diarrhea” value [3] was 44% and the “Adverse event: Dizziness” value [3] was 19%. The “Adverse event: Dyspepsia” value [3] was 28%, the “Adverse event: Dyspnea” value [3] was 22% and the “Adverse event: Edema” value [3] was 18%. For the same compound, the “Adverse event: Fever” value [3] was 29%, the “Adverse event: Headache” value [3] was 44% and the “Adverse event: Hyperglycemia” value [3] was 22%. For the same compound, the “Adverse event: Hyperkalemia” value [3] was 31%, the “Adverse event: Hyperlipemia” value [3] was 31% and the “Adverse event: Hypertension” value [3] was 50%. For the same compound, the “Adverse event: Hypokalemia” value [3] was 22%, the “Adverse event: Hypomagnesemia” value [3] was 34% and the “Adverse event: Hypophosphatemia” value [3] was 49%. For the same compound, the “Adverse event: Infection” value [3] was 45%, the “Adverse event: Insomnia” value [3] was 32% and the “Adverse event: Leukopenia” value [3] was 15%. For the same compound, the “Adverse event: Nausea” value [3] was 38%, the “Adverse event: Pain” value [3] was 32% and the “Adverse event: Paresthesia” value [3] was 23%. The “Adverse event: Peripheral Edema” value [3] was 36%, the “Adverse event: Pruritus” value [3] was 15% and the “Adverse event: Rash” value [3] was 17%. The “Adverse event: Urinary Tract Infection” value [3] was 34%, the “Adverse event: Vomiting” value [3] was 29% and the “Adverse event: Tremor” value ([3]; monohydrate) was 54%. For the same compound, the aqueous solubility [4] was “poor”, the “erythrocyte and plasma protein binding” value [5] was “extensive” and the “Adverse event: Abdominal Pain” value [6] was 59%. For the same compound, the “Adverse event: Anemia” value [6] was 47%, the “Adverse event: Anorexia” value [6] was 34% and the “Adverse event: Ascites” value [6] was 27%. For the same compound, the “Adverse event: Asthenia” value [6] was 52%, the “Adverse event: Atelectasis” value [6] was 28% and the “Adverse event: BUN Increased” value [6] was 30%. For the same compound, the “Adverse event: Back Pain” value [6] was 30%, the “Adverse event: Constipation” value [6] was 24% and the “Adverse event: Creatinine Increased” value [6] was 39%. The “Adverse event: Diarrhea” value [6] was 72%, the “Adverse event: Dyspnea” value [6] was 29% and the “Adverse event: Fever” value [6] was 48%. For the same compound, the “Adverse event: Headache” value [6] was 64%, the “Adverse event: Hyperglycemia” value [6] was 47% and the “Adverse event: Hyperkalemia” value [6] was 45%. For the same compound, the “Adverse event: Hypertension” value [6] was 47%, the “Adverse event: Hypokalemia” value [6] was 29% and the “Adverse event: Hypomagnesemia” value [6] was 48%. The “Adverse event: Insomnia” value [6] was 64%, the “Adverse event: Kidney Function Abnormal” value [6] was 40% and the “Adverse event: LFT Abnormal” value [6] was 36%. The “Adverse event: Leukocytosis” value [6] was 32%, the “Adverse event: Nausea” value [6] was 46% and the “Adverse event: Oliguria” value [6] was 18%. For the same compound, the “Adverse event: Pain” value [6] was 63%, the “Adverse event: Paresthesia” value [6] was 40% and the “Adverse event: Peripheral Edema” value [6] was 26%. For the same compound, the “Adverse event: Pleural Effusion” value [6] was 30%, the “Adverse event: Pruritus” value [6] was 36% and the “Adverse event: Rash” value [6] was 24%. The “Adverse event: Thrombocytopenia” value [6] was 24%, the “Adverse event: Tremor” value [6] was 56% and the “Adverse event: Urinary Tract Infection” value [6] was 16%. For the same compound, the “Adverse event: Vomiting” value [6] was 27%, the “concentrations inhibiting proliferation of stimulated T cells” value (murine or human T cells; T cells stimulated by specific antigens, antibodies to TCR/CD3 or mitogenic lectins) was “subnanomolar” and the “potency relative to cyclosporin A (CsA)” value (murine or human T cells; higher potency than CsA, disrupting calcium signaling leading to lymphokine production) was 50-100 fold. For the same compound, the “effect on response of spleen cells to LPS (proliferation)” value [7] was “inhibited LPS-induced proliferation in a dose dependent manner”, the “Other targeted treatment-emergent adverse events (Cushingoid features, impaired wound healing, hyperkalemia, Candida infection, CMV infection/syndrome), rate” value [8] was “less than 15%” and the “dose at or above which mortalities were seen” value (“dose” below) ([9]; adult rats, IV) was ≥ 16 × the recommended human IV dose. The “dose” value ([9]; adult rats, oral) was ≥ 52 × the recommended human oral dose and the “dose” value ([9]; immature rats, oral) was ≥ 16 × the recommended oral dose.
